From US20150273057A1, “Combination” (GLAXOSMITHKLINE LLC, priority 2012, published 2015)

Columns and labels:
Assay in all cases: Cell growth inhibition assay (Cell Titer Glo, 7 days)
Type in all cases: cell-based, Human
LS411N = LS411N BRAF V600E mutant CRC line, relative to vehicle (DMSO)
Procedure: (§1) Human colon tumor lines, Colo-205, HT-29, RKO, SW1417, LS411N and human melanoma line A375 were from ATCC. All lines were cultured in RPMI 1640 medium containing 10% fetal bovine serum (FBS).
(§2) All cells were cultured for a minimum of 72 hours prior to cell plating. Cells were assayed in a 96-well tissue culture plate (NUNC 136102) of RPMI medium containing 10% FBS for all cells at 500 cells per well. […] ATP levels were determined by adding Cell Titer Glo® (Promega) according to the manufacturer's protocol. Briefly, Cell Titer Glo0 was added to each plate, incubated for 30 minutes then luminescent signal was read on the SpectraMax L plate reader with a 0.5 sec integration time.
(§3) Inhibition of cell growth was estimated after treatment with compound or combination of compounds for 7 days and comparing the signal to cells treated with vehicle (DMSO). Cell growth was calculated relative to vehicle (DMSO) treated control wells.

Colo-205 = Colo-205 BRAF V600E mutant CRC line, relative to vehicle (DMSO)
Procedure: as §1, §2, §3

A375 = A375 melanoma line, relative to vehicle (DMSO)
Procedure: as §1, §2, §3

SW1417 = SW1417 BRAF V600E mutant CRC line, relative to vehicle (DMSO)
Procedure: as §1, §2, §3

HT-29 = HT-29 BRAF V600E mutant CRC line, relative to vehicle (DMSO)
Procedure: as §1, §2, §3

RKO = RKO BRAF V600E mutant CRC line, relative to vehicle (DMSO)
Procedure: as §1, §2, §3

| SMILES | cell growth inhibition, agent alone (LS411N) | cell growth inhibition, agent alone (Colo-205) | cell growth inhibition, agent alone (A375) | cell growth inhibition, agent alone (SW1417) | cell growth inhibition, agent alone (HT-29) | cell growth inhibition, agent alone (RKO) |
| --- | --- | --- | --- | --- | --- | --- |
| CC(=O)Nc1cccc(-n2c(=O)n(C3CC3)c(=O)c3c(Nc4ccc(I)cc4F)n(C)c(=O)c(C)c32)c1 [Compound A, N-{3-[3-cyclopropyl-5-(2-fluoro-4-iodo-phenylamino)6,8-dimethyl-2,4,7-trioxo-3,4,6,7-tetrahydro-2H-pyrido[4,3-d]pyrimidin-1-yl]phenyl}acetamide] | sensitive | sensitive | sensitive | resistant | sensitive | resistant |
| CC(C)(C)c1nc(-c2cccc(NS(=O)(=O)c3c(F)cccc3F)c2F)c(-c2ccnc(N)n2)s1 [Compound B, N-{3-[5-(2-Amino-4-pyrimidinyl)-2-(1,1-dimethylethyl)-1,3-thiazol-4-yl]-2-fluorophenyl}-2,6-difluorobenzenesulfonamide] | sensitive | sensitive | sensitive | resistant | sensitive | resistant |
| C#Cc1cccc(Nc2ncnc3cc(OCCOC)c(OCCOC)cc23)c1 [erlotinib, reference compound] | inactive | inactive | inactive | inactive | inactive | inactive |
